In patent US20210369678A1, “BENZIMIDAZOLE DERIVATIVE FOR USE IN THE TREATMENT OF INFLAMMATORY DISORDERS” (Akebia Therapeutics, Inc., priority 2018, published 2021):
“Also recorded” adds a separate entry of the source. Like-named read-outs stand apart in the source and are kept apart here.

Legend:
[1] = test system: systemic EPO; test: Systemic EPO response after oral and intraperitoneal dosing (MSD assay); assay type: in vivo, male Balb/c mice; details: 6 h post dosing
Experimental: (§1) The effect of both oral (p.o.) and intraperitoneal (i.p.) doses of Compound 1 on systemic EPO in male Balb/c mice was investigated, along with plasma drug concentrations at 1 h and 6 h post dosing. Systemic EPO was measured 6 h post dosing of Compound 1 using a commercially-available MSD assay system, correlated to standard curves. Plasma drug concentrations were quantitated by LC MS/MS. […] FIG. 1 depicts the EPO response to oral (p.o.) and intraperitoneal (i.p.) doses of Compound 1 at 6 h in BalbC mice.

[2] = Plasma drug concentrations after oral and intraperitoneal dosing (LC MS/MS); assay type: in vivo, male Balb/c mice; details: male, Balb/c, mouse, read-out: blood levels; for concentration at 1 h: 1 h post dosing; for concentration at 6 h: 6 h post dosing
Experimental: as §1

[3] = IV/p.o. pharmacokinetic study in rat; assay type: in vivo, male Sprague Dawley rats
Experimental: Separate cohorts (n=3) of non-fasted male Sprague Dawley rats were administered Compound 1 at a dose of 1 mg/kg intravenously (IV) via tail vein, 5 mg/kg orally as a solution, or 5 mg/kg orally as a suspension. Blood samples were collected at 0.033 (IV only), 0.083 (IV only), 0.25, 0.5, 1, 2, 4, 8, and 24 hrs post dose after administration. Blood was harvested via the jugular vein catheter. Blood samples were collected into tubes containing K2EDTA and placed on wet ice. The plasma fraction was separated by centrifugation and frozen at −20 to −80 ° C. Concentrations of Compound 1 in plasma were determined using a qualified liquid chromatography-triple quadrupole mass spectrometry. FIG. 2 depicts the plasma concentration of Compound 1 in healthy male SD rats over 24 hours.
(§2) Intravenous and oral (IV/p.o.) pharmacokinetic (PK) studies in rat, dog and monkey were carried out to facilitate the projection of human PK for Compound 1.
(§3) In the rat studies, Compound 1 was dosed both as a suspension (in 0.5% HPMC) and as a solution in 20% HPPCD. Experiments in the dog and monkey were dosed as a suspension in 0.5% HPMC.

[4] = IV/p.o. pharmacokinetic study in dog; assay type: in vivo, male beagle dogs; details: for bioavailability: male, beagle, po, p.o. suspension in 0.5% HPMC
Experimental: as §2, §3

[5] = IV/p.o. pharmacokinetic study in monkey; assay type: in vivo, male cynomolgus monkeys
Experimental: as §2, §3

[6] = test system: DSS-induced colitis; test: Dextran sulfate sodium (DSS)-induced colitis model; assay type: in vivo, mice
Experimental: Colitis was induced in 121 mice by exposure to 3% DSS-treated drinking water from Day 0 to Day 5. Animals were dosed via oral gavage (p.o.) with Compound 1, 6-thioguanine, or vehicle control once a day (q.d.) from Day 6 to 19. Video endoscopy was performed on days 10, 14, and 19. At these time points, colitis severity was assessed in all animals using video endoscopy, where images were taken and colitis severity scored by a blinded observer. During each endoscopy procedure, stool consistency was recorded using a 0-4 scale and an image from each animal was captured at the most severe region of disease that was identified. Following endoscopy on Day 19, all animals for the efficacy component were euthanized with CO2 inhalation. Blood was collected via cardiac puncture and placed in K2EDTA tubes for preparation of plasma. A small whole blood sample was retained for the assessment of hemoglobin and hematocrit while the remaining sample was processed to plasma, then split into two samples and snap frozen. A complete blood count, including hematocrit and hemoglobin levels, was assessed using an automated PCE-90 Vet hematology unit (HTI). FIG. 3 depicts the serum hemoglobin concentration after 14 days of oral dosing Compound 1 in mice with dextran sulfate sodium (DSS)-induced colitis. FIG. 4 depicts Endoscopy Colitis Scores in mice with dextran sulfate sodium (DSS)-induced colitis dosed via oral gavage with Compound 1, 6-thioguanine, or vehicle control once a day after 19 days.

[7] = test system: TNBS-induced colitis; test: Trinitrobenzene sulfonic acid (TNBS)-induced colitis model; assay type: in vivo, male SJL mice
Experimental: A study was conducted to determine the effects of Compound 1 compared to positive control prednisolone dosed by the oral (p.o.) route in trinitrobenzene sulfonic acid (TNBS)-induced colitis in male SJL mice (FIG. 5). The mice were divided into 5 groups. The mice were fasted for 12 to 16 hours prior to TNBS challenge. On day 0 of the study, mice in groups 2 through 5 were infused intrarectally (IR) with 50 μL TNBS solution (1.5 mg in 50% EtOH/PBS per mouse) to induce colitis. The mice in group 2 were dosed (PO) daily (QD) on days 0 to 3 with vehicle (0.5% HPMC, 0.1% Tween 80 in water). The mice in group 4 were dosed p.o. daily on days 0 to 3 with Compound 1 at 10 mpk, and the mice in group 5 were dosed p.o. daily on days 0 to 3 with Compound 1 at 30 mpk. Prednisone (group 3) was used as a positive control and was dosed p.o., QD on days 0 to 3. Group 1 served as naïve controls. On study day 4, the mice were anesthetized with Isoflurane, bled to exsanguination, and then euthanized for necropsy and tissue collection. Efficacy evaluation was based on animal body weight measurements, colon weights, colon lengths, colon weight per length ratios, histopathology of proximal and distal colons—evaluated as proximal only, distal only, or full colon (proximal and distal). Longitudinal sections of proximal and distal colon were stained with hematoxylin and eosin (H&E). Sections were analyzed using the criteria below and were scored for inflammation, gland loss, and mucosal necrosis. [table] [table] [table] [table] The histopathology sum score was calculated as a sum of inflammation, gland loss, erosion/necrosis (derived from the measure of total length vs. length of mucosal necrosis, i.e., percent), and hyperplasia scores.

[8] = Caco-2 cell monolayer permeability; assay type: in vitro ADME; details: human, tested at 10 μM, read-out: apical-to-basolateral apparent permeability Papp
Experimental: In Caco-2 cell monolayers, Compound 1 had low apical-to-basolateral apparent permeability Papp value of <0.2×10^−6 cm/s when tested at 10 μM.

[9] = 10 and 30 mg/kg p.o. QD days 0 to 3

- concentration at 1 h ([2]; ip, 100 umol/kg i.p.): 42200 nM
- concentration at 6 h ([2]; ip, 100 umol/kg i.p.): 5100 nM
- concentration at 1 h ([2]; po, 100 umol/kg p.o.): 100 nM
- concentration at 6 h ([2]; po, 100 umol/kg p.o.): 20 nM
- estimated fa*fg (fa: fraction absorbed; fg: fraction that escapes gut metabolism) [3]: ≤ 0.12
- terminal t1/2 [3]: short
- bioavailability ([3]; male, Sprague-Dawley, plasma, po, 5 mg/kg, p.o. dosing): ≤ 5%
- estimated fa*fg (fa: fraction absorbed; fg: fraction that escapes gut metabolism) [4]: ≤ 0.12
- terminal t1/2 [4]: short
- bioavailability ([4]; in vivo): ≤ 5%
- bioavailability ([4]; plasma): < 5%
- estimated fa*fg (fa: fraction absorbed; fg: fraction that escapes gut metabolism) [5]: ≤ 0.12
- terminal t1/2 [5]: short
- bioavailability ([5]; male, cynomolgus monkey, plasma, po, p.o. suspension in 0.5% HPMC): ≤ 5%
- Papp A→B at 10 μM [8]: < 0.2 ×10⁻⁶ cm/s
Structure (SMILES): O=C(O)c1cnn(-c2nc3cc(S(=O)(=O)c4ccccc4)c(Cl)cc3[nH]2)c1 [Compound 1, 1-(6-chloro-5-(phenylsulfonyl)-1H-benzo[d]imidazol-2-yl)-1H-pyrazole-4-carboxylic acid]
- EPO stimulation ([1]; 100 umol/kg i.p.): 34 fold above vehicle control
- EPO stimulation ([1]; 100 umol/kg p.o.): no EPO stimulation
- efficacy in mouse model of inflammatory bowel disease ([6]; p.o. dosing): excellent efficacy
- systemic pharmacology resulting in increases in EPO/hematocrit ([6]; p.o. dosing, mouse models of inflammatory bowel disease): no systemic pharmacology resulting in increases in EPO/hematocrit was observed
- Endoscopic Colitis Scores ([6]; p.o. q.d. Day 6 to 19, 3% DSS Day 0 to 5): effective at ameliorating DSS induced colitis
- body weight loss [7, 9]: statistically significant inhibition of body weight loss; also recorded: protects against body weight loss
- colon histopathology [7, 9]: improvements in colon histopathology
- colon weight/length ratio [7, 9]: decreased colon weight/length ratios; also recorded: improves colon weight/length ratio
- full-colon and proximal-colon histopathology ([7]; 10 or 30 mpk p.o. QD days 0 to 3): significant beneficial effects
- histopathology inflammation score ([7]; p.o. QD days 0 to 3): improves the histopathology inflammation score
- histopathology summed score ([7]; p.o. QD days 0 to 3): improves the histopathology summed score
- efficacy in mouse model of inflammatory bowel disease ([7]; p.o. dosing): excellent efficacy
